pIC50: −log10 of the molar value. “And” between values parts separate entries of the source, which are not always exact repeats. Equal values may be shown once. Read-outs that look alike come from different tables or passages of the source.
How the values were obtained:
[1] = molecular target: T1, human CYP17A1 (CYP171dH) (Homo sapiens, UniProt P05093); assay: CYP17 inhibition studies; assay type: biochemical
T1 sequence (P05093 with tags, fused parts or gaps limits assumed): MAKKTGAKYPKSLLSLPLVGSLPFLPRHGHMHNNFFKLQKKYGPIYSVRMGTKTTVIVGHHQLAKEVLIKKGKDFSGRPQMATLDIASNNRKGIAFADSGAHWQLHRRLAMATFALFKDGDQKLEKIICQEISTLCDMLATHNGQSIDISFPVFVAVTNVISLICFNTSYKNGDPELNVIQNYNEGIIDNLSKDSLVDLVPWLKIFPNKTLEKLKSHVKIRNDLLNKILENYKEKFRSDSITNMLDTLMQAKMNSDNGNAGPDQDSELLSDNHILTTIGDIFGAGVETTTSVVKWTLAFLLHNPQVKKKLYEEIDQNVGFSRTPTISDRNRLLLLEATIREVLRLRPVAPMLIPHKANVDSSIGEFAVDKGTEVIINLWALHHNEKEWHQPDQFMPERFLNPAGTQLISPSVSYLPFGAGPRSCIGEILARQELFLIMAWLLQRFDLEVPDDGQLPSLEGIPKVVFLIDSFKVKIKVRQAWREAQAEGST
Procedure: Some compounds were evaluated for their ability to inhibit CYP17 enzyme. A truncated version of human CYP17A1 (CYP171dH) was expressed in E. coli and then purified to homogeneity.

[2] = system: full-length AR; assay: Down-regulation of full-length AR, western blot in CWR22rv1 cells; assay type: cell-based, human; conditions: CWR22rv1 prostate cancer cell line
Procedure: (§1) Due to the potential implication of AR splice variants lacking the ligand-binding domain (truncated AR) in driving the progression of CRPC, the effects of the compounds on the down-regulation of AR-3 (also called AR-V7) were determined.
(§2) For the Western blot analyses, LNCaP or CWR22v1 prostate cancer cells were cultured. The cells were then treated with the indicated compounds and whole cell lysates were prepared using RIPA lysis buffer (Sigma Aldrich) and protease and phosphatase inhibitors (Sigma Aldrich). All of the antibodies were ordered from cell signaling technology. Protein content was determined using the Bradford Assay (Bio-Rad, Hercules, Calif., USA). Protein was subjected to SDS-PAGE and transferred onto nitrocellulosemembrane. Membranes were then incubated with secondary antibody (cell signaling technology) at room temperature for 1 hour. Bands were visualized by chemiluminescence (Millipore). Protein expression was normalized to β-actin and densitometry was carried out using Image J or ImageQuant 5.0 (Molecular Dynamics, Sunnyvale, Calif., USA).

[3] = system: LNCaP cells; assay: MTT colorimetric anti-proliferative assay; assay type: cell-based, human
Procedure: The cells were treated for 7 days with renewal of test compound and media on day 4. On the 7th day, medium was renewed and MTT (3-(4,5-dimethylthiazol-2-yl)-2,5-diphenyl-2H-tetrazolium bromide) (Sigma, St Louis, Mo., USA) solution (0.5 mg MTT per ml of media) was added to the medium such that the ratio of MTT: medium was 1:10. The cells were incubated with MTT for 2 hours. The medium was then aspirated and DMSO was added to solubilize the violet MTT-formazan product.

[4] = molecular target: T2, AR-3 (also called AR-V7) (Homo sapiens, UniProt P10275); assay: Down-regulation of truncated AR splice variant, western blot in CWR22rv1 cells; assay type: cell-based; conditions: CWR22rv1 prostate cancer cell line
T2 construct: endogenous in cells; host or cells: CWR22Rv1
T2 sequence (P10275 1-644 isoform P10275-3): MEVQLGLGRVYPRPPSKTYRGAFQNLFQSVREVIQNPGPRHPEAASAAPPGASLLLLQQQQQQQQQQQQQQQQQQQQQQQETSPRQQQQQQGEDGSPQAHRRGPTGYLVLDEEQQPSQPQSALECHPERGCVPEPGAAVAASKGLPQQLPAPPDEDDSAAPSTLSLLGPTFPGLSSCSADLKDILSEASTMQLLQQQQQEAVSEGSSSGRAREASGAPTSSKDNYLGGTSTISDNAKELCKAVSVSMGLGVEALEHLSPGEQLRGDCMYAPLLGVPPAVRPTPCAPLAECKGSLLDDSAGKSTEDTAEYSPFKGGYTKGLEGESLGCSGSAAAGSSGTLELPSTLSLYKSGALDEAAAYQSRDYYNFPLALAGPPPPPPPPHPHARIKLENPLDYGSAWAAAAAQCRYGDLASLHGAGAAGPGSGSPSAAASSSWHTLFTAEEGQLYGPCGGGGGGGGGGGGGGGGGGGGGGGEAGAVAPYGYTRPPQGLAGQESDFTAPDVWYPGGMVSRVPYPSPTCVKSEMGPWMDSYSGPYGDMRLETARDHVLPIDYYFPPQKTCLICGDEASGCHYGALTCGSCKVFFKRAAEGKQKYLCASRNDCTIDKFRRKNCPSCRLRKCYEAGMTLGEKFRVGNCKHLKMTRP
Procedure: as §1, §2

[5] = Solubility in ethanol or DMSO; assay type: physicochemical
[6] = molecular target: T3, AR (Homo sapiens, UniProt P10275, T878A); assay: AR down-regulation, western blot analysis in LNCaP cells; assay type: cell-based; conditions: 24 h, western blot
T3 construct: host or cells: LNCaP
T3 sequence (P10275 1-920 T878A): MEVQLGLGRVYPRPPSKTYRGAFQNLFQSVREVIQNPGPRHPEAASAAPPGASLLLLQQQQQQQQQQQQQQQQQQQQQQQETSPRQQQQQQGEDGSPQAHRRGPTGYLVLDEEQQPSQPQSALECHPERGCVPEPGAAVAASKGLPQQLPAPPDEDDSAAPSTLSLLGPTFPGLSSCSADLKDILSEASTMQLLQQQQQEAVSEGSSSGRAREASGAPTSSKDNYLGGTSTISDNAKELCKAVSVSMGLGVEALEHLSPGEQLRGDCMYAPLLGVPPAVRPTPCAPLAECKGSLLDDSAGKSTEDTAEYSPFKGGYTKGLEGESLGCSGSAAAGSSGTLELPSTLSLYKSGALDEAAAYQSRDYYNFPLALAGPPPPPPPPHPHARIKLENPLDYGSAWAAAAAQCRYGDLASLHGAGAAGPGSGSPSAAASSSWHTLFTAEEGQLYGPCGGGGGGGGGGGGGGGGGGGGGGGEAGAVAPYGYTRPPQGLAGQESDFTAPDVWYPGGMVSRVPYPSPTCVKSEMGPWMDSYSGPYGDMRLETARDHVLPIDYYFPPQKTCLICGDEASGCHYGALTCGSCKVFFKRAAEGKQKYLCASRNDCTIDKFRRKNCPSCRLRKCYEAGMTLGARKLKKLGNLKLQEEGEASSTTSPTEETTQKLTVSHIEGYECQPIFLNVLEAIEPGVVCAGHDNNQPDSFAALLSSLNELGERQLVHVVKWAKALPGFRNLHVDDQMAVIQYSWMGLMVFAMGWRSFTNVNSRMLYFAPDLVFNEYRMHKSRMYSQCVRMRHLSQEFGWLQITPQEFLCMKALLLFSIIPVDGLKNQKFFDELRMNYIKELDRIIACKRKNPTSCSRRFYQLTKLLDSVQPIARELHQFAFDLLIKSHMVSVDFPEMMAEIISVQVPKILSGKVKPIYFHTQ
Procedure: For the Western blot analyses, LNCaP or CWR22v1 prostate cancer cells were cultured. The cells were then treated with the indicated compounds and whole cell lysates were prepared using RIPA lysis buffer (Sigma Aldrich) and protease and phosphatase inhibitors (Sigma Aldrich). All of the antibodies were ordered from cell signaling technology. Protein content was determined using the Bradford Assay (Bio-Rad, Hercules, Calif., USA). Protein was subjected to SDS-PAGE and transferred onto nitrocellulosemembrane. Membranes were then incubated with secondary antibody (cell signaling technology) at room temperature for 1 hour. Bands were visualized by chemiluminescence (Millipore). Protein expression was normalized to β-actin and densitometry was carried out using Image J or ImageQuant 5.0 (Molecular Dynamics, Sunnyvale, Calif., USA). CWR22Rv1 cells were used for endogenous levels of splice variant AR-3. Protein levels were analyzed with respective antibodies; full length AR and β-actin antibodies were purchased from cell signaling, antibody specific for splice variant AR-3 was obtained from Dr. Yun Qiu, University of Maryland, School of Medicine, Baltimore.

[7] = molecular target: T4, AR in LNCaP cells (Homo sapiens, UniProt P10275, T878A); assay: Whole cell competitive binding assay with [3H]R1881; conditions: 30 µM
T4 sequence (P10275 1-920 T878A): T3 sequence (P10275 1-920 T878A)
Procedure: The androgen receptor competitive binding assays were performed with the synthetic androgen methyltrienolone [^3H]R1881. […] To determine the kinetics of [^3H]R1881 binding to the LNCaP AR cells were plated (2-3×10^5 cells/well) in 24 well multiwell dishes in steroid-free medium and allowed to attach. […] Following a 2 hour incubation period at 37° C., cells were washed twice with ice-cold DPBS and solubilized in DPBS containing 0.5% SDS and 20% glycerol. Extracts were removed and cell associated radioactivity counted in a scintillation counter. The data was analyzed, including Kd and Bmax determination, by nonlinear regression using Graphpad Prism software (GraphPad Software, Inc, San Diego, Calif.). When the concentration of [^3H]R1881 required to almost saturate AR in both cell lines was established (5.0 nM), the ability of the test compounds (1 nM-10 μM) to displace [^3H]R1881 (5.0 nM) from the receptors was determined as described above. The IC50 of each compound was determined by nonlinear regression with Graphpad Prism software (GraphPad Software, Inc, San Diego, Calif.).

[8] = each in duplicate, from dose-response curves
[9] = Homo sapiens, LNCaP, 168 h, LNCaP, MTT, 7 days, Table 4, read-out: GI50 of C-3 modified compounds
[10] = Homo sapiens, LNCaP, 168 h, LNCaP, MTT, 7 days, Table 2, read-out: GI50 of C-17 modified compounds

## C[C@]12CCC(=NO)C=C1CC[C@@H]1[C@@H]2CC[C@]2(C)C(n3cnc4ccccc43)=CC[C@@H]12 (mixture of isomers) [Compound 36, 3-((EZ)-Hydroximino)-17-(1H-Benzimidazol-1-yl)-androsta-4,16-diene]
[1]; [8]
  pIC50: 3.59 to 4.03 and 3.59
[2]
  down-regulation of full-length AR: significant down-regulation
[3]; [9]
  GI50: 1.91 µM
[4]
  down-regulation of truncated AR (AR-3): significant down-regulation

## C[C@]12CCC(=NOc3ccccc3)C=C1CC[C@@H]1[C@@H]2CC[C@]2(C)C(n3cnc4ccccc43)=CC[C@@H]12 (mixture of isomers) [Compound 37, 3-((EZ)—O-Phenyloxime)-17-(1H-Benzimidazol-1-yl)-androsta-4,16-diene]
[5]
  solubility in ethanol or DMSO: limited solubility in ethanol or DMSO

## C[C@]12CC[C@H](O)CC1=CC[C@@H]1[C@@H]2CC[C@]2(C)C(c3cccnc3)=CC[C@@H]12 [Abiraterone alcohol (3b), abiraterone alcohol, reference compound]
[1]; [8]
  pIC50: 6.69
[3]; LNCaP, MTT, 7 days, Table 2, read-out: GI50 of C-17 modified compounds
  GI50: 1.97 µM

## C[C@]12CC[C@H](O)CC1=CC[C@@H]1[C@@H]2CC[C@]2(C)C(n3cnc4ccccc43)=CC[C@@H]12 [Compound 5, 3β-Hydroxy-17-(1H-benzimidazol-1-yl)-androsta-5,16-diene, reference compound]
[1]; [8]
  pIC50: 6.12
[2]
  down-regulation of full-length AR: significant down-regulation
[3]; [10]
  GI50: 3.35 µM

## C[C@]12CC[C@H](O)CC1=CC[C@@H]1[C@@H]2CC[C@]2(C)C(n3ccc4ccccc43)=CC[C@@H]12 [Compound 16, 3β-Hydroxy-17-(1H-indol-1-yl)-androsta-5,16-diene]
[6]
  AR down-regulation (ARD) activity, in words: up-regulation of AR
[1]; [8]
  pIC50: 3.59 to 4.03 and 3.89
other
  melting point: 142 to 145 °C
[3]; [10]
  GI50: > 100 µM

## COc1ccc(NCC2=C(n3cnc4ccccc43)[C@@]3(C)CC[C@H]4[C@@H](CC=C5C[C@@H](O)CC[C@@]54C)[C@@H]3C2)cc1OC [Compound 31, 3β-Hydroxy-17-(1H-benzimidazol-1-yl)-16-(((3,4-dimethoxyphenyl)amino)methyl)-androsta-5,16-diene]
[6]
  AR down-regulation (ARD) activity, in words: significant loss of ARD
[2]
  down-regulation of full-length AR: significant down-regulation
[3]; Homo sapiens, LNCaP, 168 h, LNCaP cells, MTT, 7 days, Table 3, read-out: GI50 of C-16 modified compounds
  GI50: > 100 µM
[4]
  down-regulation of truncated AR (AR-3): significant down-regulation

## C[C@]12CC[C@H](OC(=O)c3ccccn3)CC1=CC[C@@H]1[C@@H]2CC[C@]2(C)C(n3cnc4ccccc43)=CC[C@@H]12 [Compound 41, 3β-(Pyridine-2-carboxylate)-17-(1H-benzimidazol-1-yl)-androsta-5,16-diene]
[5]
  solubility in ethanol or DMSO: limited solubilities in ethanol or DMSO

## C[C@]12CC[C@H](OC(=O)c3cccnc3)CC1=CC[C@@H]1[C@@H]2CC[C@]2(C)C(n3cnc4ccccc43)=CC[C@@H]12 [Compound 42, 3β-(Pyridine-3-carboxylate)-17-(1H-benzimidazol-1-yl)-androsta-5,16-diene]
[5]
  solubility in ethanol or DMSO: limited solubilities in ethanol or DMSO

## C[C@]12CC[C@H](OC(=O)c3ccncc3)CC1=CC[C@@H]1[C@@H]2CC[C@]2(C)C(n3cnc4ccccc43)=CC[C@@H]12 [Compound 43, 3β-(Pyridine-4-carboxylate)-17-(1H-benzimidazol-1-yl)-androsta-5,16-diene]
[7]
  inhibition of [3H]R1881 binding / displacement: ~53%
[3]; read-out: GI50 of C-3 modified compounds
  GI50: 2.57 µM

## Cc1nccn1C(=O)O[C@H]1CC[C@@]2(C)C(=CC[C@@H]3[C@@H]2CC[C@]2(C)C(n4cnc5ccccc54)=CC[C@@H]32)C1 [Compound 48, 3β-(2-Methyl-1H-imidazole-1-carboxylate)-17-(1H-benzimidazol-1-yl)-androsta-5,16-diene]
[1]; [8]
  pIC50: 3.59 to 4.03 and 4.03
other
  melting point: 186 to 187 °C
[3]; [9]
  GI50: 5.34 µM
[3]; relative to 47
  fold decrease in anti-proliferative activity: 6 fold

## C[C@]12CC[C@H](O)CC1=CC[C@@H]1[C@@H]2CC[C@]2(C)C(n3ccnc3)=CC[C@@H]12 [VN/85-1, 3β-hydroxy-17-(1H-imidazole-1-yl)androsta-5,16-diene, reference compound]
[1]
  pIC50: 6.90

Source: US9884067B2, “Androgen receptor down-regulating agents and uses thereof” (UNIVERSITY OF MARYLAND EASTERN SHORE, priority 2013, dated 2018)
